Test results: patent US20160046656A1, “NOVEL PHYTOSPHINGOSINE-1-PHOSPHATE DERIVATIVE, PREPARATION METHOD THEREFOR, AND COMPOSITION FOR PREVENTING AND TREATING HAIR LOSS OR FOR GROWING HAIR COMPRISING SAME” (PHYTOS CO., LTD., priority 2013, published 2016)

Experiments:
procollagen type I = experiment: Collagen synthesis, procollagen type I C-peptide EIA kit; assay type: cell-based; details: human fibroblasts; for Collagen synthesis (%): 24 hours, serum free medium, 0 = 100; for synthesis of collagen, result in words: summary of Table 5
Experimental: (§1) To measure anti-wrinkle effects of N-C-P1P and O-C-P1P, effects of human fibroblasts on cell proliferation were measured via an MTT (3-[4,5-dimethylthiazol-2-yl]-2,5-diphenyltetrazolium bromide) assay. To observe collagen synthesis, procollagent type I, which is produced in human fibroblasts (e.g., dermal cells), were measured.
To measure collagen synthesis, the human fibroblasts (e.g., dermal cells) were cultured in the same conditions as above for 24 hours. After removing the medium therefrom, a new serum free medium was substituted. […] The culture medium was used to measure amounts of synthesized collagen by using a procollagen type I C-peptide EIA kit, and the results measured therefrom are shown in Table 5 below.

human fibroblasts = experiment: Cell proliferation by MTT assay; assay type: cell-based; details: for Cell Viability (%): MTT, 0 = 100; for cell proliferation, result in words: summary of Table 4
Experimental: as §1
To measure cell proliferation, human fibroblasts were cultured for 24 hours in a Dulbecco's modified eagle medium (DMEM) medium supplemented with 10% FBS and 100 unit/mL of penicillin/streptomycin. The culture circumstances comprising culturing in a 5% CO2 incubator maintained at a temperature of 37° c. Then, after removing the medium therefrom, N-C-P1P and O-C-P1P were added thereto at different concentrations. The MTT assay was performed to measure effects of N-C-P1P and O-C-P1P on cell proliferation, and the results are summarized in Table 4.

C3H mice = experiment: Hair growth test using C3H mice; assay type: in vivo, mouse; details: for effects on hair growth compared to positive control group: 0.01 weight % solution once a day vs 3% minoxidil preparation (Mynoxyl)
Experimental: A 6-week C3H mouse was purchased, and the hair on a dorsal part of the mouse was partially removed. Then, hair removal cream was applied to the dorsal part to completely remove the existing hair. A mouse of which the hair was not completely removed was excluded from the test. After finishing the hair removal, 5 mice were randomly bred per cage, and a total of 5 cages were used.
The mice were left one day or so after finishing depilation, and a test compound, which was prepared by dissolving O-C-P1P of Example 4 and N-C-P1P of Example 5 in a mixed solution of ethanol and ethoxydiglycol (9:1, v/v) to a concentration of 0.01 weight %, was applied once a day to the area from which the hair was removed. A negative control group was prepared by applying a mixed solution of ethanol and ethoxydiglycol without using the test compound, and a positive control group was 3% minoxidil preparation (Mynoxyl, Hyundai Pharm). After applying samples to the area from which the hair was removed, images of the area captured at the 14th and 18th days are shown in FIG. 3. […]

[1] = 0.01 weight % in ethanol/ethoxydiglycol (9:1, v/v), applied once a day to depilated area, images at 14th and 18th days, FIG. 3

Row | SMILES | Collagen synthesis (%) (procollagen type I; concentration 0.1 μM) | Collagen synthesis (%) (procollagen type I; concentration 1 μM) | synthesis of collagen, result in words (procollagen type I) | Cell Viability (%) (human fibroblasts; concentration 0.002%) | Cell Viability (%) (human fibroblasts; concentration 0.004%) | Cell Viability (%) (human fibroblasts; concentration 0.008%) | Cell Viability (%) (human fibroblasts; concentration 0.016%) | cell proliferation, result in words (human fibroblasts) | effects on hair growth compared to negative control group (C3H mice; [1]) | effects on hair growth compared to positive control group (C3H mice; FIG. 3) | effects on hair growth compared to negative control group (C3H mice; 0.005, 0.01 and 0.02 weight % solutions, images at 13th and 17th days, FIG. 5) | difference in effects on hair growth among concentrations (C3H mice; 0.005 weight %, 0.01 weight % and 0.02 weight %, FIG. 5) | effects on hair growth compared to negative control group (C3H mice; liposomes containing O-C-P1P of Examples 6 and 7, once a day for 3 weeks, FIG. 4) | concentration giving the same effects on hair growth, times as low as the concentration of minoxidil (C3H mice; vs 3% minoxidil preparation)
1 | CCCCCCCCCCCCCC[C@@H](O)[C@@H](O)[C@@H]1COP(=O)(O)N1 [N-C-P1P, N-cyclic phytospingosine-1-phosphate] | 110 | 125 | promoting synthesis of collagen | 120 | 110 | 110 | 125 | promoting cell proliferation | significantly better | quite less | – | – | – | –
2 | CCCCCCCCCCCCCC[C@@H](O)[C@H]1OP(=O)(O)OC[C@@H]1N [O-C-P1P, O-cyclic phytospingosine-1-phosphate] | 120 | 140 | promoting synthesis of collagen | 128 | 135 | 143 | 160 | promoting cell proliferation | rapid growth of hair | effects on faster hair growth were shown better | significant effects on hair growth | no significant different | significant effects on hair growth | about 300 times
